Each block holds one compound with its values, some of them ahead of it.
Experiments:
RPMI-8226 [1] = assay: Cytotoxicity against human RPMI-8226 cells assessed as inhibition of cell proliferation incubated for 72 hrs by Cell Titer-Glo luminescence assay; format: functional, cell-based; conditions: RPMI-8226, 72 h
20S proteasome = assay: Inhibition of human 20S proteasome chymotrypsin-like activity using Suc-Leu-Leu-Val-Tyr-AMC as fluorogenic peptide pre-incubated for 10 mins with compound followed by substrate addition for 60 mins by spectrofluorimetric analysis; format: protein-complex assay
[2] = Stability of the compound in stimulated […] fluid at pH 1.2 measured after 4 hrs; format: ADME; conditions: simulated gi fluid, pH 1.2, 4 h
[3] = Stability of the compound in stimulated […] fluid at pH 6.8 measured after 12 hrs; format: ADME; conditions: simulated intestinal fluid, read-out: Stability
[4] = Stability of the compound in stimulated […] fluid at pH 1.2 measured after 1 min; format: ADME; conditions: simulated gi fluid, pH 1.2, 1 min
[5] = Stability of the compound in stimulated […] fluid at pH 6.8 measured after 8 hrs; format: ADME; conditions: simulated intestinal fluid, read-out: Stability
[6] = Stability of the compound in stimulated […] fluid at pH 6.8 measured after 4 hrs; format: ADME; conditions: simulated intestinal fluid, read-out: Stability
[7] = Stability of the compound in stimulated […] fluid at pH 6.8 measured after 2 hrs; format: ADME; conditions: simulated intestinal fluid, read-out: Stability
[8] = Stability of the compound in stimulated […] fluid at pH 1.2 measured after 12 hrs; format: ADME; conditions: simulated gi fluid, pH 1.2, 12 h
[9] = Stability of the compound in stimulated […] fluid at pH 1.2 measured after 2 hrs; format: ADME; conditions: simulated gi fluid, pH 1.2, 2 h
[10] = Stability of the compound in stimulated […] fluid at pH 1.2 measured after 8 hrs; format: ADME; conditions: simulated gi fluid, pH 1.2, 8 h
[11] = Stability of the compound in stimulated […] fluid at pH 6.8 measured after 1 min; format: ADME; conditions: simulated intestinal fluid, read-out: Stability
[12] = Toxicity in Balb/c mouse xenografted with human RPMI-8226 cells assessed as body weight loss at 6 mg/kg,po administrated biweekly for 21 days; format: organism-based; conditions: in vivo, 504 h, time 21 day
[13] = Half life in monkey liver microsomes at 1 uM incubated for 2 to 60 mins in presence of NADPH by LC-MS/MS analysis; format: ADME, Macaca mulatta, Microsome; conditions: rhesus monkey, time 2-60 min
[14] = target: Voltage-gated inwardly rectifying potassium channel KCNH2 (Homo sapiens, UniProt Q12809); assay: Inhibition of human ERG expressed in HEK293 cells; format: toxicity, cell-based
[15] = Intrinsic clearance in mouse liver microsomes at 1 uM incubated for 2 to 60 mins in presence of NADPH by LC-MS/MS analysis; format: ADME, Microsome; conditions: time 2-60 min, read-out: CLH
[16] = Intrinsic clearance in human liver microsomes at 1 uM incubated for 2 to 60 mins in presence of NADPH by LC-MS/MS analysis; format: ADME, Microsome; conditions: time 2-60 min, read-out: CLH
[17] = Half life in Sprague-Dawley rat at 1.2 mg/kg,IG measured upto 24 hrs by LC-MS/MS analysis; format: ADME, organism-based; conditions: in vivo, po
[18] = AUC(0-t) in Sprague-Dawley rat at 1.2 mg/kg,IG measured upto 24 hrs by LC-MS/MS analysis; format: ADME, organism-based; design: dose 1.2 mg/kg, time < 24 hrs, route ig; conditions: in vivo, po
[19] = AUC (0-t) in Sprague-Dawley rat at 0.4 mg/kg,iv measured upto 24 hrs by LC-MS/MS analysis; format: ADME, organism-based; design: time < 24 hrs, dose 0.4 mg/kg, route iv; conditions: in vivo
[20] = Half life in rat liver microsomes at 1 uM incubated for 2 to 60 mins in presence of NADPH by LC-MS/MS analysis; format: ADME, Microsome; conditions: time 2-60 min
[21] = Half life in Sprague-Dawley rat at 0.4 mg/kg,iv measured upto 24 hrs by LC-MS/MS analysis; format: ADME, organism-based; conditions: in vivo
[22] = Intrinsic clearance in dog liver microsomes at 1 uM incubated for 2 to 60 mins in presence of NADPH by LC-MS/MS analysis; format: ADME, Canis lupus familiaris, Microsome; conditions: time 2-60 min, read-out: CLH
[23] = Intrinsic clearance in rat liver microsomes at 1 uM incubated for 2 to 60 mins in presence of NADPH by LC-MS/MS analysis; format: ADME, Microsome; conditions: time 2-60 min, read-out: CLH
[24] = Half life in dog liver microsomes at 1 uM incubated for 2 to 60 mins in presence of NADPH by LC-MS/MS analysis; format: ADME, Canis lupus familiaris, Microsome; conditions: time 2-60 min
[25] = Cmax in Sprague-Dawley rat at 1.2 mg/kg,IG measured upto 24 hrs by LC-MS/MS analysis; format: ADME, organism-based; design: time < 24 hrs, dose 1.2 mg/kg, route ig; conditions: in vivo, po
[26] = Intrinsic clearance in monkey liver microsomes at 1 uM incubated for 2 to 60 mins in presence of NADPH by LC-MS/MS analysis; format: ADME, Macaca mulatta, Microsome; conditions: rhesus monkey, time 2-60 min, read-out: CLH
[27] = Tmax in Sprague-Dawley rat at 1.2 mg/kg,IG measured upto 24 hrs by LC-MS/MS analysis; format: ADME, organism-based; conditions: in vivo, po
RPMI-8226 [28] = assay: Antitumor activity against human RPMI-8226 cells xenografted in Balb/c mouse assessed as tumor growth inhibition at po administration biweekly for 21 days; format: functional, organism-based; conditions: time 21.0 day
[29] = Half life in human liver microsomes at 1 uM incubated for 2 to 60 mins in presence of NADPH by LC-MS/MS analysis; format: ADME, Microsome; conditions: time 2-60 min
[30] = Half life in mouse liver microsomes at 1 uM incubated for 2 to 60 mins in presence of NADPH by LC-MS/MS analysis; format: ADME, Microsome; conditions: time 2-60 min
[31] = Toxicity in Balb/c mouse xenografted with human RPMI-8226 cells assessed as body weight loss at 10 mg/kg,po administrated biweekly for 21 days; format: organism-based; conditions: in vivo, 504 h, time 21 day
[32] = Oral bioavailability in Sprague-Dawley rat at 1.2 mg/kg measured upto 24 hrs by LC-MS/MS analysis; format: ADME, organism-based; conditions: in vivo

Sequence of Voltage-gated inwardly rectifying potassium channel KCNH2 (Q12809 whole entry): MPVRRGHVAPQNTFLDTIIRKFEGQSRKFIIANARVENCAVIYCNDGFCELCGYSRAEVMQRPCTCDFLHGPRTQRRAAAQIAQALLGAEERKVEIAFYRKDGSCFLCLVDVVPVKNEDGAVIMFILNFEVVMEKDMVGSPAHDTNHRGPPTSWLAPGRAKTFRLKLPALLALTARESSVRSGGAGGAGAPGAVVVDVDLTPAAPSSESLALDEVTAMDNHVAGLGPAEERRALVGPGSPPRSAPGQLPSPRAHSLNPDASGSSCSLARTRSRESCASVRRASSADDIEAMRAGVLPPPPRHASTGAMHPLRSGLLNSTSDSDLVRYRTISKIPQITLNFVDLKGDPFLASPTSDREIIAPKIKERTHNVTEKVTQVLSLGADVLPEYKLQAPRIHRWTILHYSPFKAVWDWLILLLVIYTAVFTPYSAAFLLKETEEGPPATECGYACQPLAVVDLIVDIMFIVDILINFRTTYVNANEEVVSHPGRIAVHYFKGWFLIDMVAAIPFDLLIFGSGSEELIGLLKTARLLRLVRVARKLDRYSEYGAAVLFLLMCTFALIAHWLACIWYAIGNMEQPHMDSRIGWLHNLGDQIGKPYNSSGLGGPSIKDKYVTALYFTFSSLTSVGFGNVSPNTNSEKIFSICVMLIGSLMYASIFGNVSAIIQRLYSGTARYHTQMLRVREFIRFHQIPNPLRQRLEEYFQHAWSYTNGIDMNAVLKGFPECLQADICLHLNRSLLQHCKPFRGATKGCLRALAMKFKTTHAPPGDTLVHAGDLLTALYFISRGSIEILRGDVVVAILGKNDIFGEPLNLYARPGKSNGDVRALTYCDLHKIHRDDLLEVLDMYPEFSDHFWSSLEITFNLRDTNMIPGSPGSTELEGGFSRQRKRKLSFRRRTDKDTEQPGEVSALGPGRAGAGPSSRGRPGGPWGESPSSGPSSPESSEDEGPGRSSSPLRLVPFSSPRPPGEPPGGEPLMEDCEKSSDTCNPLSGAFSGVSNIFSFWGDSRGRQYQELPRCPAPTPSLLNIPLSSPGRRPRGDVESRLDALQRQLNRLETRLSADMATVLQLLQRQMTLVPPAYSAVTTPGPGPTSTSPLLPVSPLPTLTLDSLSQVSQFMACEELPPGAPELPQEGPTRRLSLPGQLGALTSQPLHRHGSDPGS

SMILES: CC(C)C[C@H](NC(=O)CNC(=O)c1cc(F)ccc1F)B(O)O
IC50 (RPMI-8226 [1]): 41.5 nM
IC50 (20S proteasome): 20.6 nM

SMILES: CC(C)C[C@H](NC(=O)CNC(=O)c1cc(Cl)ccc1Cl)B1OC2C3CC(C(=O)O)C(O3)C2O1 (stereo partly drawn)
Stability [2]: 82.49%
remaining at 12 h [3]: 19.9%
Stability [4]: 14.06%
remaining at 8 h [5]: 19.6%
IC50 (RPMI-8226 [1]): 4.4 nM
remaining at 4 h [6]: 19.8%
IC50 (20S proteasome): 6.3 nM
remaining at 2 h [7]: 23.9%
Stability [8]: 83.15%
Stability [9]: 83.62%
Stability [10]: 78.47%
remaining at 1 min [11]: 21%

SMILES: CC(C)C[C@H](NC(=O)C(CC1CC1)NC(=O)c1cc(C(F)(F)F)ccc1C(F)(F)F)B(O)O (stereo partly drawn)
IC50 (RPMI-8226 [1]): 4.9 nM
IC50 (20S proteasome): 5 nM

SMILES: COc1ccc(OC)c(C(=O)NCC(=O)N[C@@H](CC(C)C)B(O)O)c1
IC50 (RPMI-8226 [1]): 57.9 nM
IC50 (20S proteasome): 15.8 nM

SMILES: CC(C)C[C@H](NC(=O)C(NC(=O)c1cc(C(F)(F)F)ccc1C(F)(F)F)C1CCCC1)B(O)O (stereo partly drawn)
IC50 (RPMI-8226 [1]): 6.9 nM
IC50 (20S proteasome): 6 nM

SMILES: CC(C)C[C@H](NC(=O)CNC(=O)c1cc(Cl)ccc1Cl)B1OC2C3OC(CC3C(=O)O)C2(C)O1 (stereo partly drawn)
Stability [2]: 61.18%
remaining at 12 h [3]: 14.2%
Stability [4]: 6.7%
remaining at 8 h [5]: 12.5%
IC50 (RPMI-8226 [1]): 5 nM
remaining at 4 h [6]: 12.4%
IC50 (20S proteasome): 5.2 nM
remaining at 2 h [7]: 12.9%
Stability [8]: 58.21%
Stability [9]: 60.84%
Stability [10]: 58.58%
remaining at 1 min [11]: 7.36%

SMILES: CC(C)C[C@H](NC(=O)C(NC(=O)c1cc(C(F)(F)F)ccc1C(F)(F)F)C1CC1)B(O)O (stereo partly drawn)
IC50 (RPMI-8226 [1]): 6.7 nM
IC50 (20S proteasome): 5.6 nM

More lines, in order of falling IC50 (20S proteasome), values ahead:

IC50 (20S proteasome): 9.8 nM
SMILES: CC(C)C[C@H](NC(=O)CNC(=O)c1cc(Cl)ccc1Cl)B1OC2CC3C(=O)NC(=O)C3CC2(C)O1 (stereo partly drawn)
IC50 (RPMI-8226 [1]): 8.7 nM

Stability [2]: 50.68%
remaining at 12 h [3]: 1.33%
Stability [4]: 19.33%
remaining at 8 h [5]: 1.35%
remaining at 4 h [6]: 1.18%
IC50 (20S proteasome): 7.7 nM
remaining at 2 h [7]: 1.79%
Stability [8]: 48.53%
Stability [9]: 35.35%
Stability [10]: 52.71%
remaining at 1 min [11]: 1.9%
SMILES: CC(C)C[C@H](NC(=O)CNC(=O)c1cc(Cl)ccc1Cl)B1OC2C3OC(c4ccccc43)C2O1 (stereo partly drawn)
IC50 (RPMI-8226 [1]): 6.9 nM

IC50 (20S proteasome): 5.2 nM
SMILES: CC(C)C[C@H](NC(=O)CNC(=O)c1cc(C(F)(F)F)ccc1C(F)(F)F)B(O)O
IC50 (RPMI-8226 [1]): 18.4 nM

Stability [2]: 58.25%
remaining at 12 h [3]: 6.77%
Stability [4]: 6.44%
half-life at 1 µM [13]: 8.8 min
microsomal CLint at 1 µM [15]: 49 µL/min/mg
microsomal CLint at 1 µM [16]: 49 µL/min/mg
half-life [17]: 1800 min
AUC(0-t) at 24 h [18]: 2680 ng·h/mL
remaining at 8 h [5]: 5.24%
AUC(0-t) at 24 h [19]: 2270 ng·h/mL
half-life at 1 µM [20]: 25.2 min
half-life [21]: 1450 min
remaining at 4 h [6]: 3.98%
microsomal CLint at 1 µM [22]: 19 µL/min/mg
microsomal CLint at 1 µM [23]: 55 µL/min/mg
half-life at 1 µM [24]: 72.9 min
Cmax [25]: 174 ng/mL
microsomal CLint at 1 µM [26]: 158 µL/min/mg
IC50 (20S proteasome): 2.2 nM
Tmax [27]: 49.8 min
remaining at 2 h [7]: 3.55%
Stability [8]: 59.68%
half-life at 1 µM [29]: 28.3 min
Stability [9]: 59.73%
half-life at 1 µM [30]: 28.3 min
Stability [10]: 58.68%
bioavailability [32]: 34%
remaining at 1 min [11]: 2.27%
SMILES: CC(C)C[C@H](NC(=O)C(CC1CC1)NC(=O)c1cc(C(F)(F)F)ccc1C(F)(F)F)B1OC2C3OC(CC3C(=O)O)C2(C)O1 (stereo partly drawn)
Activity [12]: Non-Toxic
IC50 [14]: > 30000 nM
IC50 (RPMI-8226 [1]): 5.6 nM
Activity (RPMI-8226 [28]): Dose-Dependent Effect
Activity [31]: Non-Toxic
